Test [1] addresses CSF1R (Homo sapiens, UniProt P07333). The test can be described thus: HEK293 CSF1R phosphorylation MSD assay. The format is cell-based. Also noted: expressed in transfected cells; host or cells: HEK293. The note with it: HEK293 cells, M-CSF stimulated CSF1R phosphorylation, MSD; read-out: HEK293 pCSF1R M-CSF MSD:IC50. In a few lines: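 HEK293 cells expressing CSF1R-FKBP were pretreated 2 h at 37° C with 9 half-log concentrations of compound (0.5% DMSO final), then stimulated 5 min with 50 ng/mL human M-CSF. Lysates captured on biotin-FK506 plates; phosphotyrosine detected by MSD electrochemiluminescence. IC50 versus DMSO, averaged from duplicate plates.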

In test [2] the test system is M-NFS-60 cells. The test can be described thus: M-NFS-60 cell proliferation assay (Alamar Blue). The note with it: Mus musculus; M-NFS-60 cell proliferation; read-out: CSF1R M-NFS-60 CTB:IC50. The format is cell-based, mouse. In short, it runs like this: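 Mouse M-NFS-60 cells growing on 20 ng/mL M-CSF in RPMI/10% FBS were exposed to compounds (9 half-log concentrations, 0.5% DMSO) for 72 h at 37 °C. Viability read by Alamar Blue fluorescence (ex 560/em 590 nm, 3 h). IC50 = 50% proliferation inhibition versus control, mean of duplicates.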
A general note: Alamar Blue is a resazurin reagent that responds to reducing activity.

IC50 data for 21 compounds are collected here from patent US9938261B2, “Heterocyclic compounds and methods of use thereof” (AMBIT BIOSCIENCES CORPORATION, priority 2011, dated 2018).

In general, IC50 refers to the midpoint of a concentration-inhibition curve.

Sequence of CSF1R (P07333 20-972): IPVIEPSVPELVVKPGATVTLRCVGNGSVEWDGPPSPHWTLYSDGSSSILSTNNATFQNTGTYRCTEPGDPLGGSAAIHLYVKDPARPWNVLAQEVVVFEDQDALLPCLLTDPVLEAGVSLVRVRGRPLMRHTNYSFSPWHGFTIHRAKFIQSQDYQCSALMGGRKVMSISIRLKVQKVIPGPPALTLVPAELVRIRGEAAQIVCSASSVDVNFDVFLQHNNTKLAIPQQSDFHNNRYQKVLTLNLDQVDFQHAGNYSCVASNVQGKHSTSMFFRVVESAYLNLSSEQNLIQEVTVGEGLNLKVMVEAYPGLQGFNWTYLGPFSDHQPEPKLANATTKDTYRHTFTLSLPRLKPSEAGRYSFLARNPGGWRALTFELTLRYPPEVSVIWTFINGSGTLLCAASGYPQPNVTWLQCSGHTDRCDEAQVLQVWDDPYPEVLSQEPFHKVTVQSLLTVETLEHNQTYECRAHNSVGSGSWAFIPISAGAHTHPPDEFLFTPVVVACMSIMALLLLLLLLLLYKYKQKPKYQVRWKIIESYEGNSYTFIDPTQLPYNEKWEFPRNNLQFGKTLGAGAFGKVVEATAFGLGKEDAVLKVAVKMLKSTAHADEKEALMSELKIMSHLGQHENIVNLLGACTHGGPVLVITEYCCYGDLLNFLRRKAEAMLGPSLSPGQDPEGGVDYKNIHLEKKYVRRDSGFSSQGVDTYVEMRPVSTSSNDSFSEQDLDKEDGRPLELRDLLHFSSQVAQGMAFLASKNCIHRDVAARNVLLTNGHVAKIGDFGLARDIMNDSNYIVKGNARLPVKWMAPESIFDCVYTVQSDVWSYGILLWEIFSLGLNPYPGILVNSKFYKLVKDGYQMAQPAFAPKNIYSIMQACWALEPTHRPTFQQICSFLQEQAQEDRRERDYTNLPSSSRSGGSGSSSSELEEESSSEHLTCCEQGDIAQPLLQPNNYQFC

Regarding `CC(C)(O)C#Cc1cnc2c(c1)ncn2Cc1ccc2nc(N[C@@H]3CCCC[C@H]3O)sc2c1` [Example 104, (1R,2R)-2-((6-((6-(3-hydroxy-3-methylbut-1-yn-1-yl)-3H-imidazo[4,5-b]pyridin-3-yl)methyl)benzo[d]thiazol-2-yl)amino)cyclohexanol], the IC50 in test [1] and in test [2] was at most 50 nM in each case.

`O[C@@H]1CCCC[C@H]1Nc1nc2ccc(Cn3cnc4cnc(C(F)(F)F)nc43)cc2s1` [Example 105, (1R,2R)-2-((6-((2-(trifluoromethyl)-9H-purin-9-yl)methyl)benzo[d]thiazol-2-yl)amino)cyclohexanol]: the IC50 in test [1] was 200 to 500 nM; in test [2], 400 to 1500 nM.

Turning to `O[C@@H]1CCCC[C@H]1Nc1nc2ccc(Cc3cnc4ccc(Br)nn34)cc2s1` [Example 177, (1R,2R)-2-((6-((6-bromoimidazo[1,2-b]pyridazin-3-yl)methyl)benzo[d]thiazol-2-yl)amino)cyclohexanol], the IC50 in test [1] and in test [2] was at most 50 nM in each case.

Turning to `CN1CCN(c2ccc3ncc(Cc4ccc5nc(N[C@@H]6CCCC[C@H]6O)sc5c4)n3n2)CC1` [Example 178, (1R,2R)-2-((6-((6-(4-methylpiperazin-1-yl)imidazo[1,2-b]pyridazin-3-yl)methyl)benzo[d]thiazol-2-yl)amino)cyclohexanol], the IC50 in test [1] was 200 to 500 nM; in test [2], 400 to 1500 nM.

For the compound `OC[C@H]1CC[C@H](Nc2nc3ccc(Cn4cnc5cc(F)cnc54)cc3s2)CC1` [Example 179, (trans-4-((6-((6-fluoro-3H-imidazo[4,5-b]pyridin-3-yl)methyl)benzo[d]thiazol-2-yl)amino)cyclohexyl)methanol], the IC50 lay within 200 to 500 nM in test [1] and 400 to 1500 nM in test [2].

For `OC[C@H]1CC[C@@H](Nc2nc3ccc(Cn4cnc5cc(F)cnc54)cc3s2)CC1` [Example 180, (cis-4-((6-((6-fluoro-3H-imidazo[4,5-b]pyridin-3-yl)methyl)benzo[d]thiazol-2-yl)amino)cyclohexyl)methanol], the IC50 was over 500 nM in test [1] and over 1500 nM in test [2].

On to `CS[C@@H]1CCCC[C@H]1Nc1nc2ccc(Cn3cnc4cc(F)cnc43)cc2s1` [Example 181, 6-((6-fluoro-3H-imidazo[4,5-b]pyridin-3-yl)methyl)-N-((1R,2R)-2-(methylthio)cyclohexyl)benzo[d]thiazol-2-amine], for which the values for the IC50 in test [1] and in test [2] were 200 to 500 nM and 400 to 1500 nM, respectively.

Consider `O[C@@H]1CCCC[C@H]1Nc1nc2ccc(Cn3cnc4cc(OC5COC5)ccc43)cc2s1` [Example 182, (1R,2R)-2-((6-((5-(oxetan-3-yloxy)-1H-benzo[d]imidazol-1-yl)methyl)benzo[d]thiazol-2-yl)amino)cyclohexanol], for which the IC50 in test [1] is at most 50 nM; in test [2], 50 to 400 nM.

In the case of `C=Cc1ccc2c(c1)ncn2Cc1ccc2nc(N[C@@H]3CCCC[C@H]3O)sc2c1` [Example 183, (1R,2R)-2-((6-((5-vinyl-1H-benzo[d]imidazol-1-yl)methyl)benzo[d]thiazol-2-yl)amino)cyclohexanol], the IC50 in test [1] and in test [2] was at most 50 nM in each case.

In the case of `O[C@@H]1CCCC[C@H]1Nc1nc2ccc(Cn3cnc4cc(C5=CCCCC5)ccc43)cc2s1` [Example 184, (1R,2R)-2-((6-((5-(cyclohex-1-en-1-yl)-1H-benzo[d]imidazol-1-yl)methyl)benzo[d]thiazol-2-yl)amino)cyclohexanol], the IC50 in test [1] lay within 200 to 500 nM; in test [2] it was 50 to 400 nM.

On to `Cn1cc(-c2ccc3c(c2)ncn3Cc2ccc3nc(N[C@@H]4CCCC[C@H]4O)sc3c2)c(C(F)(F)F)n1` [Example 185, (1R,2R)-2-((6-((5-(1-methyl-3-(trifluoromethyl)-1H-pyrazol-4-yl)-1H-benzo[d]imidazol-1-yl)methyl)benzo[d]thiazol-2-yl)amino)cyclohexanol], for which the values for the IC50 in test [1] and in test [2] were 50 to 200 nM and 50 to 400 nM, respectively.

Regarding `O[C@@H]1CCCC[C@H]1Nc1nc2ccc(Cc3cnc4cccc(F)n34)cc2s1` [Example 186, (1R,2R)-2-((6-((5-fluoroimidazo[1,2-a]pyridin-3-yl)methyl)benzo[d]thiazol-2-yl)amino)cyclohexanol], the IC50 in test [1] is 200 to 500 nM; in test [2] it was 400 to 1500 nM.

Turning to `O[C@@H]1CCCC[C@H]1Nc1nc2ccc(Cc3cnc4cc(N5CCOCC5)ccn34)cc2s1` [Example 187, (1R,2R)-2-((6-((7-morpholinoimidazo[1,2-a]pyridin-3-yl)methyl)benzo[d]thiazol-2-yl)amino)cyclohexanol], the IC50 in test [1] fell in the range of 50 to 200 nM; in test [2] it was 400 to 1500 nM.

For `CN1CCN(c2ccn3c(Cc4ccc5nc(N[C@@H]6CCCC[C@H]6O)sc5c4)cnc3c2)CC1` [Example 188, (1R,2R)-2-((6-((7-(4-methylpiperazin-1-yl)imidazo[1,2-a]pyridin-3-yl)methyl)benzo[d]thiazol-2-yl)amino)cyclohexanol], the IC50 in test [1] lay in the range of 50 to 200 nM; in test [2] it was 400 to 1500 nM.

Turning to `Cc1cc(C)c2c(c1)ncn2Cc1ccc2nc(N[C@@H]3CCCC[C@H]3O)sc2c1` [Example 189], the IC50 in test [1] lay within 200 to 500 nM; in test [2], 50 to 400 nM.

For the compound `Cc1cc(Br)cc2ncn(Cc3ccc4nc(N[C@@H]5CCCC[C@H]5O)sc4c3)c12` [Example 190, (1R,2R)-2-((6-((5-bromo-7-methyl-1H-benzo[d]imidazol-1-yl)methyl)benzo[d]thiazol-2-yl)amino)cyclohexanol], the IC50 was over 500 nM in test [1] and 50 to 400 nM in test [2].

In the case of `Fc1cnc2c(c1)ncn2Cc1ccc2nc(Nc3ccccc3)sc2c1` [Example 191, 6-((6-fluoro-3H-imidazo[4,5-b]pyridin-3-yl)methyl)-N-phenylbenzo[d]thiazol-2-amine], the results for the IC50 in test [1] and in test [2] were over 500 nM and over 1500 nM, respectively.

Consider `OC[C@@H]1CCC[C@@H](Nc2nc3ccc(Cn4cnc5cc(F)cnc54)cc3s2)C1` [Example 192, ((1R,3R)-3-((6-((6-fluoro-3H-imidazo[4,5-b]pyridin-3-yl)methyl)benzo[d]thiazol-2-yl)amino)cyclohexyl)methanol], for which the IC50 lay within 200 to 500 nM in test [1] and 400 to 1500 nM in test [2].

For `O[C@@H]1[C@H](O)CCC[C@H]1Nc1nc2ccc(Cn3cnc4cc(F)cnc43)cc2s1` [Example 193, (1R,2S,3R)-3-((6-((6-fluoro-3H-imidazo[4,5-b]pyridin-3-yl)methyl)benzo[d]thiazol-2-yl)amino)cyclohexane-1,2-diol], the IC50 in test [1] and in test [2] was at most 50 nM throughout.

In the case of `OC[C@H]1CCC[C@@H](Nc2nc3ccc(Cn4cnc5cc(F)cnc54)cc3s2)C1` [Example 194, ((1S,3R)-3-((6-((6-fluoro-3H-imidazo[4,5-b]pyridin-3-yl)methyl)benzo[d]thiazol-2-yl)amino)cyclohexyl)methanol], the IC50 in test [1] lay within 50 to 200 nM; in test [2], 50 to 400 nM.

On to `N#Cc1cc2ncn(Cc3ccc4nc(N[C@@H]5CCCC[C@H]5O)oc4c3)c2cc1Cl` [Example 195, 6-chloro-1-((2-(((1R,2R)-2-hydroxycyclohexyl)amino)benzo[d]oxazol-6-yl)methyl)-1H-benzo[d]imidazole-5-carbonitrile], for which the IC50 lay within 200 to 500 nM in test [1] and 400 to 1500 nM in test [2].
